Values of other authors, collected in patent US7332526B2 (Allergan, Inc., priority 2003, dated 2008).
No end group written: not given here.

Experiments:
[1] = in vivo
[2] = tested on: wounded corneal epithelial cells; conditions: in vitro, rabbit cells

Molecule	hyperemia and other irritating side effects compared to certain prostaglandins [1]	migration of wounded corneal epithelial cells [2]
CCNC(=O)CCC/C=C\C[C@@H]1[C@@H](/C=C/[C@@H](O)CCc2ccccc2)[C@H](O)C[C@@H]1O [bimatoprost]	significantly less hyperemia and other irritating side effects	
TFF3: human trefoil factor family peptide with one trefoil domain, produced by goblet cells of small and large intestine (EEYVGLSANQCAVPAKDRVDCGYPHVTPKECNNRGCCFDSRIPGVPWCFKPLQEAECTF; ends and bridges not checked; cysteine pairing not given here; UniProt Q07654 22-80, looked up)		promote the migration
TFF2: human trefoil factor family peptide containing two trefoil domains, produced by mucus-producing cells of stomach (protein, UniProt Q03403 24-129, looked up) Trefoil factor 2: EKPSPCQCSRLSPHNRTNCGFPGITSDQCFDNGCCFDSSVTGVPWCFHPLPKQESDQCVMEVSDRRNCGYPGISPEECASRKCCFSNFIFEVPWCFFPKSVEDCHY		promote the migration
